Experimental data: patent US20120115896A1, “ISOGENIC HUMAN CELL LINES COMPRISING MUTATED CANCER ALLELES AND PROCESS USING THE CELL LINES” (priority 2008, published 2012)
Like-named read-outs stand apart in the source and are kept apart here.

Legend:
[1] = system: hTERT-HME1 cells of the indicated genotype (WT, PIK3CA KI, KRAS G13D, DKI KRAS G13D + PIK3CA H1047R); test: Cell cycle analysis by flow cytometry (propidium iodide) after everolimus 500 nM for 48 h; type: cell-based, human; conditions: for cells in G1 phase, Mean / cells in G2/M phase, Mean / cells in S phase, Mean / cells in G2 + S, Mean / cells in Sub-G1, Mean: FACS
Procedure: (A) CFSE-labelled cells were analyzed by flow cytometry at the indicated time-points (top panels). The maximum fluorescence intensity for all samples was recorded at day 0 (depicted in filled black). […] (B) Cells of the indicated genotype were incubated with everolimus 500 nM for 48 h, after which cell cycle was analyzed by flow cytometry. No increase of the subG1 apoptotic fraction of cells was observed upon treatment. Representative data from 3 independent experiments are shown.
For time-course experiments, on the initial day hTERT-HME1 cells were labelled with 3 μM CFSE (5-(and -6)-carboxyfluorescein diacetate, succinimidyl ester, Invitrogen C1157, Milan, Italy) in PBS in the dark for 30 minutes. After washing and recording baseline fluorescence, cells were plated in media containing 1% FBS and 2 ng/mL EGF, and treatment with everolimus was initiated, replenishing the drug on a daily basis. For cell cycle analysis, trypsinized cells were washed with PBS and cell nuclei DNA were stained with propidium iodide (PI) for at least 120 minutes using a commercial kit (DNA con 3, Consul T.S., Orbassano, Italy).
All fluorescence levels were detected by flow cytometry on a FACSCalibur (Becton Dickinson, Milan, Italy) and analyzed using CellQuest software. The number of events collected for each sample varied between 15,000 and 50,000. After doublets exclusion, an extended analysis of the DNA content and calculations of the percentage of cells in each phase of the cell cycle were performed on ModFit Lt software (Verity Software House, Topsham, Me.).
To shed light on the preferential effect induced by everolimus in PIK3CA KI clones, the present inventors also performed FACS analysis. […] The data shown in table 7 are the results of hTERT-HME1 cells of the indicated genotype incubated for 48 h with everolimus (500 nM), wherein the effect on cell cycle was analyzed by FACS. […] Accordingly, the proportions of cells in the S- and G2/M-phases decreased. Means of at least 4 independent experiments are shown. Significance by paired t test was taken at p<0.01.
To further explore the role of mutant KRAS on everolimus' response, the present inventors recapitulated the genetic milieu of the HCT116 colorectal cancer cells in hTERT-HME1 cells, by introducing via homologous recombination both KRAS G13D and PIK3CA H1047R alleles in their genome. This approach generated double-KI (DKI) cells, in which each mutation is expressed under the corresponding gene's own promoter. […] Means of at least 4 independent experiments are shown. Significance by paired t test was taken at p<0.01.

[2] = system: panel of cell lines derived from glioblastoma, breast, ovarian, prostate, endometrial and colorectal carcinomas carrying genetic alterations in PIK3CA or PTEN; test: Antiproliferative effects of everolimus on a panel of cancer cell lines; type: cell-based, human; conditions: FIG. 7A
From the text: The present pharmacogenomic analysis of non-transformed cells carrying cancer alleles point to a relationship between the occurrence of PIK3CA mutations and sensitivity to everolimus. The present inventors next assessed whether and to what extent these findings might be applicable to human cancer cells in which mutations in the PIK3CA pathway naturally occur alongside with additional genetic alterations. To this end a panel of cell lines derived from glioblastoma, breast, ovarian, prostate, endometrial and colorectal carcinomas which are known to carry genetic alterations in PIK3CA or PTEN (FIG. 7) were treated with everolimus. […] Everolimus-resistant cells (such as HT-29, HCT 116 and DLD-1) carried mutations in both PIK3CA and KRAS/BRAF.

[3] = system: hTERT-HME1 DKI cells carrying PIK3CA (H1047R) and EGFR (delE746-A750)
[4] = system: HCT 116 colorectal cancer cells and derivative clones (HKh-2, HKe-3, HK2-6, PIK3CA WT/mutant); test: Viability (ATP assay) of HCT 116 cells and isogenic KRAS / PIK3CA derivative clones
Procedure: (§1) Results are expressed as percent of viability compared to cells treated with DMSO only ('control') and represent mean±SD of at least three independent observations.
(§2) After serial dilutions, 100 μl of drugs in serum free medium were added to cells with a multichannel pipette. Vehicle and medium-only containing wells were added as controls. Plates were incubated at 37° C. in 5% CO2 for 96 h, after which cell viability was assessed by ATP content using the CellTiter-Glo® Luminescent Assay (Promega Madison, Wis.).

[5] = system: phosphorylation of p70S6K, RpS6, AKT and MAPK in HCT 116 and KRAS WT/- HKe-3 cells; test: Biochemical effects of everolimus: immunoblot and ELISA of phospho-proteins; type: cell-based, human; conditions: everolimus 500 nM, 30 minutes
Procedure: (A, D) After 30 minutes'treatment with everolimus 500 nM, HCT 116 parental cells and its derivative KRAS WT/-HKe-3 clone were lysed and immunoblotted with the anti-phospho-P70S6K, totalP70S6K, phospho-MAPK and total MAPK (B, C, E) The same lysates were used also for ELISA measurements of total AKT, phosphoAKT (Thr308), phosphoAKT (Ser473), total RpS6 and phosphoRpS6 levels. Numbers indicate the ratio of phosphorylated protein related to total protein levels and are normalized respect to the untreated (NT) HCT 116 cells.
SDS PAGE was performed using Invitrogen Precasted gels (Invitrogen Carlsbad, Calif.); western blotting transfer onto Hybond-C Extra membranes (Amersham, Amersham Biosciences, Uppsala, Sweden) was done following standard methods. The primary antibodies used for immunoblotting were: Anti-AKT (Cell Signaling, Technology, Danvers, Mass.); Anti-phospho-AKT S473 (Cell Signaling, Technology, Danvers, Mass.); Anti-Actin and Anti-Vinculin (Sigma-Aldrich, St. Louis, Mo.); Phospho-p44/42 Map kinase (Thr202/Tyr204) (Cell Signaling, Technology, Danvers, Mass.); Anti-phospho-EGFR Receptor (Tyr 1068) and Anti EGFR Receptor (Cell Signaling Technology, Danvers, Mass.).

[6] = system: DLD-1 colorectal cancer cells and derivative clones (DKO-1, DKO-3, DKO-4, PIK3CA WT/mutant); test: Viability (ATP assay) of DLD-1 cells and isogenic KRAS / PIK3CA derivative clones
Procedure: as §1, §2

[7] = hTERT-HME1 DKI KRAS G13D + PIK3CA H1047R, propidium iodide
[8] = hTERT-HME1 KI KRAS G13D, propidium iodide

CO[C@H]1C[C@@H]2CC[C@@H](C)[C@@](O)(O2)C(=O)C(=O)N2CCCC[C@H]2C(=O)O[C@H]([C@H](C)C[C@@H]2CC[C@@H](OCCO)[C@H](OC)C2)CC(=O)[C@H](C)/C=C(\C)[C@@H](O)[C@@H](OC)C(=O)[C@H](C)C[C@H](C)/C=C/C=C/C=C/1C [everolimus, Everolimus]
cell cycle response of DKI cells (KRAS G13D and PIK3CA H1047R) [1]: cell cycle response comparable to that observed in the parental WT population
cells in G1 phase, Mean [1, 7]: 77.5
cells in G2/M phase, Mean [1, 7]: 10.5
cells in S phase, Mean [1, 7]: 12.0
cells in G1 phase, Mean [1, 8]: 75.7
cells in G2/M phase, Mean [1, 8]: 13.1
cells in S phase, Mean [1, 8]: 11.2
cells in G1 phase, Mean ([1]; hTERT-HME1 KI PIK3CA E545K): 78.5
cells in G2 + S, Mean ([1]; hTERT-HME1 KI PIK3CA E545K): 21.5
cells in G2/M phase, Mean ([1]; hTERT-HME1 KI PIK3CA E545K): 12.7
cells in S phase, Mean ([1]; hTERT-HME1 KI PIK3CA E545K): 8.8
cells in Sub-G1, Mean ([1]; hTERT-HME1 KI PIK3CA E545K): 0.9
cells in G1 phase, Mean ([1]; hTERT-HME1 KI PIK3CA H1047R): 88.7
cells in G2 + S, Mean ([1]; hTERT-HME1 KI PIK3CA H1047R): 11.3
cells in G2/M phase, Mean ([1]; hTERT-HME1 KI PIK3CA H1047R): 4.9
cells in S phase, Mean ([1]; hTERT-HME1 KI PIK3CA H1047R): 6.4
cells in Sub-G1, Mean ([1]; hTERT-HME1 KI PIK3CA H1047R): 0.6
cells in G1 phase, Mean ([1]; hTERT-HME1 WT): 75.7
cells in G2 + S, Mean ([1]; hTERT-HME1 WT): 24.3
cells in G2/M phase, Mean ([1]; hTERT-HME1 WT): 14.2
cells in S phase, Mean ([1]; hTERT-HME1 WT): 10.1
cells in Sub-G1, Mean ([1]; hTERT-HME1 WT): 0.9
apoptosis ([1]; vehicle versus drug-treated, FIG. 18B): almost undetectable
response of tumor cells with PIK3CA pathway alterations but no mutation in KRAS/BRAF [2]: sensitive
response of tumor cells carrying mutations in both PIK3CA and KRAS/BRAF ([2]; such as HT-29, HCT 116 and DLD-1): resistant
ΔKI PIK3CA + EGFR ([3]; Log(M) −5.70): 0
ΔKI PIK3CA + EGFR ([3]; Log(M) −6.70): 1.38
ΔKI PIK3CA + EGFR ([3]; Log(M) −7.70): 0
ΔKI PIK3CA + EGFR ([3]; Log(M) −8.70): 0.68
ΔKI PIK3CA + EGFR ([3]; Log(M) −9.70): 0
response of HCT 116 parental and isogenic cells carrying mutated KRAS ([4]; FIG. 7B): equally resistant
response of HCT 116 derivative cells retaining only the KRAS WT allele ([4]; HKh-2 and HKe-3, FIG. 7B): sensitive to everolimus
response of HCT 116 cells in which PIK3CA H1047R had been deleted ([4]; all clones retain mutated KRAS, FIG. 14A): non-responsive to everolimus
MAPK phosphorylation in drug treated HKe-3 cells compared to parental ([5]; FIG. 15A): higher level of MAPK phosphorylation
levels of activated RpS6 ([5]; FIG. 15E): decreased accordingly
phosphorylation of p70S6K ([5]; parental and KRAS D13 deleted cells, FIG. 15D): abrogated
response of DLD-1 clones knock-out for the mutated KRAS D13 allele versus parental / DKO-1 ([6]; DKO-3 and DKO-4, FIG. 7C): more sensitive to everolimus
response of DLD-1 cells knock-out for the mutated PIK3CA K545 allele ([6]; FIG. 14B): as sensitive to everolimus as either the corresponding parental cells or a clone retaining only the PIK3CA mutated allele
